Results on one molecule are retold here after paper PMC7497641, “Neurotropic activity and safety of methylene-cycloalkylacetate (MCA) derivative 3-(3-allyl-2-methylenecyclohexyl) propanoic acid” (ACS Chemical Neuroscience, 2020).

pEC50, pIC50: −log10 of the molar value.

In data set [1] the target is T1, Opioid Receptor Mu 1 (OPRM1) (Homo sapiens, UniProt P35372).
T1 construct: host or cells: cAMP Hunter cell lines
Kind of data set: cell-based. As to conditions: cAMP, read-out: RC50 (the source's name).

Data set [2] in a line: Acute (single-dose) oral toxicity, pathology of major organs. Type of data set: in vivo. As to conditions: 2000 mg/kg orally. As for the experimental part:
Prioritizing compounds with a lower chance of causing toxicity, early in the drug discovery process, would help in the drug development process.[30] With this consideration we conducted acute (single-dose) toxicity study[31] to determine the short-term adverse pathological effects on major mice organs of HU-MCA-13 when administered in mice in a single dose, for a period of 24 h. One group of 5 mice received HU-MCA-13 orally at a dose of 2000 mg/kg, dissolved in a nano-emulsifying drug delivery system[32] in a bolus of 0.4 mL/mouse. After 24 h exposure, the animals were sacrificed, and organs were harvest for pathology analyses. […] This finding was not related to the tested compound and was considered as an accidental finding. This information on the lack of acute toxicity of HU-MCA-13 may predict the safety of this compound in future therapeutic evaluation.
C57Bl/6 mice, 8 weeks old, obtained from Envigo animal breeding center were used in the study. All experiments were approved by the Institutional Animal Care and Use Committee and performed according to OECD guidelines for testing of chemicals.[53] Organs were harvested from mice that were administered with MCA-13 for the detection of possible toxicological lesions in the framework of a safety assessment. […]

In data set [3] the target is Voltage-gated L-type calcium channel (CAV1.2) (Homo sapiens, UniProt Q13936). Kind of data set: cell-based.
Data set [4] concerns neurons. Kind of data set: Cytotoxicity to neurons. As to conditions: 10 μM. Type of data set: cell-based. An excerpt:
“Off-target” activity refers to all other targets for which a molecule has affinity with the outcome of activation, blockade, or modulation, resulting in a functional effect. In many cases, the off-target activity of the molecule can be sub-clinical and not pose a concern. On the other hand, the off-target activity may result in side effects of the active agent that range from a minor nuisance to a severe adverse event, resulting with drug withdrawal.[33] Therefore, in vitro pharmacological profiling is increasingly being used earlier in the drug discovery process to identify undesirable off-target activity profiles that could hinder or halt the development of a candidate drug.[34] With this background, assessing the specificity of HU-MCA-13 early in its development using highly relevant and predictive functional assays, which allow more informed decisions about its safety, ultimately lead to the development of an effective neurotropic drug. […] Cell death was evaluated by morphological appearance of the cells and release of LDH into the medium, in the absence and presence of different concentrations of synthetic compounds as previously described.[52]

The target in data set [5] is T2, cAMP-specific 3′,5′-cyclic phospho-diesterase 4D2 (PDE4D2) (Homo sapiens, UniProt Q08499).
T2 construct: purchased Signal Chem
T2 sequence (Q08499 303-809): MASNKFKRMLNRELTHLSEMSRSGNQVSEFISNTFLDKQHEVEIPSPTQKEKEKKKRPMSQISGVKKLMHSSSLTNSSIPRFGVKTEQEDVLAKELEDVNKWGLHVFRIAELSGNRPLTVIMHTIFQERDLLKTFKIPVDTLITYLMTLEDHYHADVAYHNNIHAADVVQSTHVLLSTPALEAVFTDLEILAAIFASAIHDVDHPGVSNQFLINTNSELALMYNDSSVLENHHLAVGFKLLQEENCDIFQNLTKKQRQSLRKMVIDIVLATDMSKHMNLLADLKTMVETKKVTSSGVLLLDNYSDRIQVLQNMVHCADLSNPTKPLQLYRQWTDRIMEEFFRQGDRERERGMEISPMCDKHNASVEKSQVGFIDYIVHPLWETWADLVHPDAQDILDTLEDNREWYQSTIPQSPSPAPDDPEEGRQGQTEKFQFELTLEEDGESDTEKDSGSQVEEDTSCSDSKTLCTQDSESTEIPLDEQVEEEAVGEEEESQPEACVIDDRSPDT
Nature of the data set: SAFETYscan Enzymatic assay. The data set is classed as biochemical. As to conditions: Inhibitor.

Data set [6] deals with T3, Cannabinoid Receptor 2 (CNR2) (Homo sapiens, UniProt P34972).
T3 construct: host or cells: cAMP Hunter cell lines
T3 sequence (P34972 whole entry): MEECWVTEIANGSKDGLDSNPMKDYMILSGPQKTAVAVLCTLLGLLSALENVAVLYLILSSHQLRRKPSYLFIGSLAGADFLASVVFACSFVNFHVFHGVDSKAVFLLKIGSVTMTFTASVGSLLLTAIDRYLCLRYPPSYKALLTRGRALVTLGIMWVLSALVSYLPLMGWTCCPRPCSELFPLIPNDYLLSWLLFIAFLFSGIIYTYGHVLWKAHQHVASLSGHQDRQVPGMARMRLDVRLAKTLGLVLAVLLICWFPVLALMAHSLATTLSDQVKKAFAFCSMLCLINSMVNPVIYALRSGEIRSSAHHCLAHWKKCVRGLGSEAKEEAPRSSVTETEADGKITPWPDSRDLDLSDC
Kind of data set: SAFETYscan GPCR cAMP. The data set is classed as cell-based.

Data set [7] addresses T4, Opioid Receptor Kappa 1 (OPRK1) (Homo sapiens, UniProt P41145).
T4 construct: host or cells: cAMP Hunter cell lines
Kind of data set: SAFETYscan GPCR cAMP. The data set is classed as cell-based.

For data set [8], the system named is dorsal root ganglion (DRG) sensory neurons. Nature of the data set: DRG neurite outgrowth assay. Type of data set: cell-based, mice. Particulars: HU-MCA-13 5 μM, DRG explants, 5 days. An excerpt: In the second step, we study the effect of HU-MCA-13 on ex-vivo sensory neuronal cultures obtained from dissociated dorsal root ganglia (DRG), a model in which the neurons tend to extend neurites in culture at a high rate, and all neurite outgrowths are axons, as confirmed by immune staining for cytoskeletal-specific proteins.[27] […] By contrast, NGF induced a strong, 3.5-fold increase in neurite outgrowth to a value of 700 μm (Figure 1 and Figure 3B) and a ratio of 8.5 between the area covered by neurites and that covered by the DRG ganglia (Figure 3C). Similarly, HU-MCA-13 induced a 2.5 fold increase in neurite outgrowth to a value of about 500 μm (Figure 1 and Figure 3B) and a ratio of 5.4 between the area covered by neurites and that covered by the DRG ganglia (Figure 3C). […] These experiments extend the neurotropic effect of MCA-13 observed with PC12 dopaminergic neuronal cultures to DRG sensory neurons.
To perform these experiments, 10 DRGs were excised under sterile conditions and transferred to Dulbecco’s Modified Eagle Medium (DMEM) containing 0.25% Type IV collagenase in at 37 °C for 45 min, followed by a 20 min incubation with 0.025% trypsin in DMEM, to digest the associated connective tissue surrounding the neurons. After plating the ganglia onto collagen (50 μg/mL)/laminin mixture (5 μg/mL)-coated tissue culture wells for 24 h, DRG neurons were cultured for additional 1–7 days in fresh Neurobasal A/B27 medium[27] containing either 50 ng/mL NGF (positive control), medium containing 1% DMSO (negative control) or 5 μM MCA-13. The living cultures were photographed and thereafter, the ganglia were immunostained for β tubulin III and again photographed using a fluorescent microscope. A researcher blinded to the experimental conditions performed image analysis, and the neurite outgrowth length (in micrometers) was measured.[50]

Data set [9] addresses T5, cGMP-inhibited cyclic nucleotide phospho-diesterase 3A (PDE3A) (Homo sapiens, UniProt Q14432).
T5 construct: purchased Signal Chem
Kind of data set: SAFETYscan Enzymatic assay. The data set is classed as biochemical. As to conditions: Inhibitor.

The mark [10] stands for this setting: 10 μM, read-out: MCA-13 Max. Responce.
[11] abbreviates: read-out: RC50 (the source's name).

T5 sequence (Q14432 whole entry): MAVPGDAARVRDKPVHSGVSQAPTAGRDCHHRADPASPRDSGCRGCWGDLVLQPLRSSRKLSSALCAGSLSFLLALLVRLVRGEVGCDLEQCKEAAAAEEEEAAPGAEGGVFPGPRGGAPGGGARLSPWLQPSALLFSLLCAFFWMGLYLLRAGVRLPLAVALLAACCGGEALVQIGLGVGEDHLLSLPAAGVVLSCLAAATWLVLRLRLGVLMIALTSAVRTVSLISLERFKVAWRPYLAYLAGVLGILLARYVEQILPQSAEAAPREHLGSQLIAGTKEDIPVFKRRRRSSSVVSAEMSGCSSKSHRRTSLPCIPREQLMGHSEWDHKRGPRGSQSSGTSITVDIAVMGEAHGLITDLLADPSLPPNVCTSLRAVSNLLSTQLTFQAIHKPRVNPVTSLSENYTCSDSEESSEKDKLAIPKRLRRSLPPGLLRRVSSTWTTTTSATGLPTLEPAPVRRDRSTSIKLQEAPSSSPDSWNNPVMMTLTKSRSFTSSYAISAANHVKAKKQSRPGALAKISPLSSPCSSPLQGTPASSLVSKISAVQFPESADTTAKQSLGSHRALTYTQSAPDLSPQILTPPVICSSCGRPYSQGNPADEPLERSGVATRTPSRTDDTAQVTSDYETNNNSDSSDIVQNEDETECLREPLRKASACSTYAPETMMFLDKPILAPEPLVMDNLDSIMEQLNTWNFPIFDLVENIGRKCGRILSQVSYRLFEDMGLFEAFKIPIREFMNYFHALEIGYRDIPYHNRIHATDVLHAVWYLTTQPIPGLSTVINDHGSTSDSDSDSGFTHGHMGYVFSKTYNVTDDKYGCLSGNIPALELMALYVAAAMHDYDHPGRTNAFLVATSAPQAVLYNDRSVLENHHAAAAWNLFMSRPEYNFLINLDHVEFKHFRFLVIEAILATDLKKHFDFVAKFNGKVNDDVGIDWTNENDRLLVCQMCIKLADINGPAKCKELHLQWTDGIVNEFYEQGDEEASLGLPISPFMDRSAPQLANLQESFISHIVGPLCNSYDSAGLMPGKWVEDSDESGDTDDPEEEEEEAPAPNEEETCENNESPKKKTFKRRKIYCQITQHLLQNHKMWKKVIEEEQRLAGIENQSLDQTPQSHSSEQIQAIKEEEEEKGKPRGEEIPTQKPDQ
T1 sequence (P35372 whole entry): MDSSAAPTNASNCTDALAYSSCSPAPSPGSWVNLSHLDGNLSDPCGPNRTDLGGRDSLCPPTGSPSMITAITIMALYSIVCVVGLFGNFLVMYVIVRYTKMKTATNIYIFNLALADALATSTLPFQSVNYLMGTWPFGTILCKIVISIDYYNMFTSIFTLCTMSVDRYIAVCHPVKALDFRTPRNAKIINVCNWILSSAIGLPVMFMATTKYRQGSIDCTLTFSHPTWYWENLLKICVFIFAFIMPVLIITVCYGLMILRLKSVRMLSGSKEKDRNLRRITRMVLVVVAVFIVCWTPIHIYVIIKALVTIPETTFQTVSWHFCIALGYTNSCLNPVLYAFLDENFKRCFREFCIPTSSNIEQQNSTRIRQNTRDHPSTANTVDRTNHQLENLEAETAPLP
T4 sequence (P41145 whole entry): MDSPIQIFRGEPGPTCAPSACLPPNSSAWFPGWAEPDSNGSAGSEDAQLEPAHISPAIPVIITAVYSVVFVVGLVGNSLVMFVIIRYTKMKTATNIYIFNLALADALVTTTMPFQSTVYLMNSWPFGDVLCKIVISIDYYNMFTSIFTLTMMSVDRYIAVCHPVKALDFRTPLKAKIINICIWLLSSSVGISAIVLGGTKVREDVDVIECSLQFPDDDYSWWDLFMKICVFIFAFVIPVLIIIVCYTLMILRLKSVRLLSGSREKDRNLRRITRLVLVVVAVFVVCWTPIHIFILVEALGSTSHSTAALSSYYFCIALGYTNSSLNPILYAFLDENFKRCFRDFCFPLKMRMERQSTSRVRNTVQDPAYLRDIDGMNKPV

Regarding `C=CCC1CCCC(CCC(=O)O)C1=C` (centres unmarked) [HU-MCA-13, 3-(3-allyl-2-methylenecyclohexyl)propanoic acid], the pEC50 in [1] (Agonist), in [6] and in [7] was less than 5.00 in each case. In addition, the pIC50 in data set [1] (Antagonist), in data set [3], in [5] (setting [11]), in [6], in data set [7] and in data set [9] (setting [11]) was less than 5.00 in each case. In addition, in [2] (single dose in nano-emulsifying drug delivery system, 24 h), the “cytotoxic lesions in all organs (histopathology)” value is recorded as “no cytotoxic lesions were found”. Besides, the “finding in last part of colon, rectum and adjacent anal unhaired skin” value in data set [2] (in three animals, considered accidental, not related to the tested compound) was “severe purulent, necrotizing inflammation”. The toxicity to neurons result in data set [4] is listed as “not toxic”. The inhibition at 10 µM was 0% in data set [5] (setting [10]) and 3.21% in data set [9] (setting [10]). The neurite outgrowth length result in data set [8] was “about 500 μm”. Moreover, the “ratio between the area covered by neurites and that covered by the DRG ganglia” value in data set [8] was found to be 5.4. In data set [8] (versus control medium), the “fold increase in neurite outgrowth” value is reported as 2.5 fold.
